As usually defined, the IC50 is the point on the concentration scale where inhibition reaches its midpoint. A lower IC50 goes with inhibition by little substance.

This test deals with T1, GLIC (Gloeobacter violaceus ligand-gated ion channel) (Gloeobacter violaceus, UniProt Q7NDN8).
T1 sequence (Q7NDN8 44-359): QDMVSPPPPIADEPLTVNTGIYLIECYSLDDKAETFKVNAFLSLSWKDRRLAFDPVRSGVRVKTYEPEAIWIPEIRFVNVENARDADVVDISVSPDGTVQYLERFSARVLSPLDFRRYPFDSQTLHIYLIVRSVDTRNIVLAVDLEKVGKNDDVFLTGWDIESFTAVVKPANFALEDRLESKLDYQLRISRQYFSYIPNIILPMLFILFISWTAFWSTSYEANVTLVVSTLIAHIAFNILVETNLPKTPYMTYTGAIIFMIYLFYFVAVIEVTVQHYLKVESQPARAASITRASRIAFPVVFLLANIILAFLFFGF
Nature of the test: two-electrode voltage clamp in Xenopus oocytes, inhibition of proton-activated. Type of test: cell-based. On the technique in general: Two-electrode voltage clamp is typically applied to oocytes expressing channels or transporters.

Compound `FC(F)OC(F)C(F)(F)F` (stereo not shown) [DSF, desflurane] came in with an IC50 of 1100 µM.

(Values after PMC3787718 (Structure (London, England : 1993), 2013).)
